PubChem BioAssay AID248 (DTP/NCI, 2004)
Values joined by “and” are separate entries in the source; they are usually repeats but may differ in a detail not shown here. Equal entries are not always repeated. Inconclusive results and toxic doses are left out. Cut-off read from the data, not from the text of the source: active = T/C of 150% or more; inactive = T/C below 125%.

System: L1210 leukemia ip in BDF1 mice, survival T/C
Experiment: NCI In Vivo Anticancer Drug Screen. Data for tumor model L1210 Leukemia (intraperitoneal) in B6D2F1 (BDF1) mice
Settings: endpoint: mean survival time, higher = longer survival
Procedure, shortened: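 Mice bearing the transplanted tumor received compound or vehicle. Survival of the treated group was divided by that of the vehicle-treated control group to give the ratio.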

[1] = dose: 100.0 mg/kg/injection, schedule: Q04DX002 (ip), vehicle: Klucel (hydroxypropylcellulose) (HPC)
[2] = dose: 200.0 mg/kg/injection, schedule: Q04DX002 (ip), vehicle: Klucel (hydroxypropylcellulose) (HPC)
[3] = dose: 400.0 mg/kg/injection, schedule: Q04DX002 (ip), vehicle: Klucel (hydroxypropylcellulose) (HPC)
[4] = dose: 100.0 mg/kg/injection, schedule: Q01DX009 (ip), vehicle: Klucel (hydroxypropylcellulose) (HPC)
[5] = dose: 200.0 mg/kg/injection, schedule: Q01DX009 (ip), vehicle: Klucel (hydroxypropylcellulose) (HPC)
[6] = dose: 50.0 mg/kg/injection, schedule: Q01DX009 (ip), vehicle: saline
[7] = dose: 100.0 mg/kg/injection, schedule: Q01DX009 (ip), vehicle: saline
[8] = dose: 200.0 mg/kg/injection, schedule: Q01DX009 (ip), vehicle: saline

Measured: T/C

O=C(Oc1cc(Cl)c(S(=O)(=O)F)cc1Cl)c1ccc([N+](=O)[O-])cc1
inactive: [1] 99 % of control | [2] 99 % of control | [3] 92 % of control

Cc1cccc(Cl)c1NC(=O)Nc1ccc(CCO)cc1
inactive: [4] 103 % of control | [5] 97 % of control | dose: 400.0 mg/kg/injection, schedule: Q01DX009 (ip), vehicle: Klucel (hydroxypropylcellulose) (HPC) 94 % of control

CCOCc1c(COc2ccc(Cl)cc2)n(C)c2ccccc12
inactive: dose: 100.0 mg/kg/injection, schedule: Q04DX002 (ip), vehicle: saline 98 % of control | dose: 200.0 mg/kg/injection, schedule: Q04DX002 (ip), vehicle: saline 98 % of control | dose: 400.0 mg/kg/injection, schedule: Q04DX002 (ip), vehicle: saline 104 % of control

FC(F)(F)Cc1cccc(C(F)(F)F)c1
inactive: dose: 100.0 mg/kg/injection, schedule: Q01DX001 (ip), vehicle: saline with Tween-80 113 % of control | dose: 200.0 mg/kg/injection, schedule: Q01DX001 (ip), vehicle: saline with Tween-80 103 % of control | dose: 400.0 mg/kg/injection, schedule: Q01DX001 (ip), vehicle: saline with Tween-80 105 % of control

CC(=O)OC1/C(=C/c2ccco2)CCC2CCCCC21C (stereo unspecified)
inactive: [6] 96 % of control | dose: 100.0 mg/kg/injection, schedule: Q01DX001 (ip), vehicle: saline 91 % of control | [7] 103 % of control | dose: 200.0 mg/kg/injection, schedule: Q01DX001 (ip), vehicle: saline 88 % of control | [8] 108 % of control | dose: 400.0 mg/kg/injection, schedule: Q01DX001 (ip), vehicle: saline 93 % of control

CNc1n[n+](-c2ccccc2)no1
inactive: dose: 25.0 mg/kg/injection, schedule: Q01DX009 (ip), vehicle: saline 93 % of control | dose: 25.0 mg/kg/injection, schedule: Q04DX003 (ip), vehicle: saline 111 % of control | [6] 109 % of control | dose: 50.0 mg/kg/injection, schedule: Q04DX003 (ip), vehicle: saline 104 % of control | dose: 100.0 mg/kg/injection, schedule: Q04DX003 (ip), vehicle: saline 97 % of control and 101 % of control

COc1cc2c(c3ccccc13)CCCC2=O
inactive: dose: 100.0 mg/kg/injection, schedule: Q04DX003 (ip), vehicle: saline with Tween-80 103 % of control | dose: 200.0 mg/kg/injection, schedule: Q04DX003 (ip), vehicle: saline with Tween-80 93 % of control | dose: 400.0 mg/kg/injection, schedule: Q04DX003 (ip), vehicle: saline with Tween-80 92 % of control

N#C/C(=N/O)c1ccccn1
inactive: [4] 96 % of control | [7] 100 % of control | [5] 100 % of control | [8] 107 % of control | dose: 400.0 mg/kg/injection, schedule: Q01DX009 (ip), vehicle: saline 92 % of control

O=[N+]([O-])c1ccc(/C=C/c2ccc(OCc3ccccc3)cc2)cc1Cl
inactive: [1] 96 % of control | [2] 96 % of control | [3] 96 % of control

CCOC(=O)C1C(c2ccccc2)C1c1ccc(C)cc1 (stereo unspecified)
inactive: dose: 25.0 mg/kg/injection, schedule: Q04DX002 (ip), vehicle: saline with Tween-80 103 % of control | dose: 50.0 mg/kg/injection, schedule: Q04DX002 (ip), vehicle: saline with Tween-80 103 % of control | dose: 100.0 mg/kg/injection, schedule: Q04DX002 (ip), vehicle: saline with Tween-80 98 % of control

CC1(CCC#N)CCC(N)=CC1=O (stereo unspecified)
inactive: dose: 100.0 mg/kg/injection, schedule: Q01DX001 (ip), vehicle: carboxymethylcellulose (CMC) 96 % of control | dose: 200.0 mg/kg/injection, schedule: Q01DX001 (ip), vehicle: carboxymethylcellulose (CMC) 98 % of control | dose: 400.0 mg/kg/injection, schedule: Q01DX001 (ip), vehicle: carboxymethylcellulose (CMC) 96 % of control

CC(=O)SCCNCCNC1CC2CCC1C2 (stereo unspecified)
inactive: dose: 1.25 mg/kg/injection, schedule: Q01DX009 (ip), vehicle: saline 94 % of control | dose: 2.5 mg/kg/injection, schedule: Q01DX009 (ip), vehicle: saline 97 % of control | dose: 5.0 mg/kg/injection, schedule: Q01DX009 (ip), vehicle: saline 100 % of control | dose: 7.2 mg/kg/injection, schedule: Q01DX009 (ip), vehicle: saline 94 % of control | dose: 10.0 mg/kg/injection, schedule: Q01DX001 (ip), vehicle: saline 92 % of control | dose: 10.0 mg/kg/injection, schedule: Q04DX003 (ip), vehicle: saline 99 % of control | dose: 11.0 mg/kg/injection, schedule: Q01DX009 (ip), vehicle: saline 92 % of control | dose: 16.5 mg/kg/injection, schedule: Q01DX009 (ip), vehicle: saline 90 % of control | dose: 20.0 mg/kg/injection, schedule: Q01DX001 (ip), vehicle: saline 90 % of control | dose: 23.0 mg/kg/injection, schedule: Q01DX009 (ip), vehicle: saline 88 % of control | dose: 40.0 mg/kg/injection, schedule: Q01DX001 (ip), vehicle: saline 95 % of control
